Reference: patent publication US20140341846A1, “METHODS OF INHIBITING PHOTORECEPTOR APOPTOSIS” (The Regents of The University of Michigan, priority 2009, published 2014)
Entries after “also recorded” stand apart in the source; their conditions may differ.

Experiments:
[1] = test system: Fas-mediated caspase 8 activation in 661W cells; test: Fas-Ab induced caspase 8 activity in 661W cells; assay type: cell-based; conditions: 500 ng/ml Fas-Ab, 48 hours after treatment
Protocol: The 661W cell line was maintained in Dulbecco's modified Eagle's medium containing 10% fetal bovine serum, 300 mg/L glutamine, 32 mg/L putrescine, 40 μL/L of β-mercaptoethanol, and 40 μg/L of both hydrocortisone 21-hemisuccinate and progesterone. The media also contained penicillin (90 units/ml) and streptomycin (0.09 mg/ml). Cells were grown at 37° C. in a humidified atmosphere of 5% CO2 and 95% air.
In cell culture experiments, caspase 8 activity was measured by a commercially available luminescent tetrapeptide (LETD) cleavage assay kit (Promega, Madison, Wis.). The 661W cells were seeded in 96-well plates (Nunc, Rochester, N.Y.) at 1500 cells/well for 24 hours prior to treatment. Cells were pre-treated with various concentrations of Met12, mMet, or vehicle for 1 hour prior to treatment with 500 ng/ml of Fas-agonistic Jo2 monoclonal antibody (BD Biosciences, San Jose, Calif.). Caspase 8 activity was measured at various time points by incubating the cells with the pro-luminescent substrate in 96-well plates following manufacturer's instructions. Controls included untreated cells and wells with no cells. Luminescence was measured in a plate reader luminometer (Turner Biosystems, Sunnyvale Calif.).

caspase 8 = test: Caspase 8 activity in detached retinas (Met study); assay type: in vivo, Brown Norway rats; conditions: 50 μg subretinal at time of detachment; 24 hours after detachment
Protocol: (§1) Retinal-RPE separation was created in Brown Norway rats by subretinal injection of 1% hyaluronic acid. Met12, derived from the Fas-binding extracellular domain of the oncoprotein Met, was injected into the subretinal space at the time of separation. […] Extrinsic apoptotic pathway was induced in 661W cells using a Fas-activating antibody in the presence or absence of Met12. Caspase 3, caspase 8, and caspase 9 activities were measured with calorimetric and luminescent assays in retinal extracts and cell lysates. Terminal deoxynucleotidyl transferase dUTP nick-end labeling (TUNEL) was performed in retinal sections 3 days after separation. Histology was performed in retinal sections 2 months after retinal detachment.
(§2) Rodents were anesthetized with a 50:50 mix of ketamine (100 mg/mL) and xylazine (20 mg/mL), and pupils were dilated with topical phenylephrine (2.5%) and tropicamide (1%). A 20-gauge microvitreoretinal blade (Walcott Scientific, Marmora, N.J.) was used to create a sclerotomy 2 mm posterior to the limbus, carefully avoiding lens damage. […]
(§3) Caspase 3, caspase 8 and caspase 9 activities were measured with colorimetric tetrapeptide cleavage assay kits, per the manufacturer's instructions (Bio-Vision, Mountain View, Calif.). […] Absorbance was measured at 405 nm in a microplate reader (Spectra-MAX 190, Molecular Devices, Sunnyvale, Calif.). […]

caspase 3 = test: Caspase 3 activity in detached retinas (Met study); assay type: in vivo, Brown Norway rats; conditions: 50 μg subretinal
Protocol: as §1, §2, §3

caspase 9 = test: Caspase 9 activity in detached retinas (Met study); assay type: in vivo, Brown Norway rats; conditions: 50 μg subretinal
Protocol: as §1, §2, §3

[2] = test system: photoreceptors (outer nuclear layer); test: TUNEL staining 3 days after retinal detachment (Met study); assay type: in vivo, Brown Norway rats; conditions: 50 μg subretinal
Protocol: as §1
(§4) Rodents were anesthetized with a 50:50 mix of ketamine (100 mg/mL) and xylazine (20 mg/mL), and pupils were dilated with topical phenylephrine (2.5%) and tropicamide (1%). […]
(§5) Photoreceptor cell apoptosis was quantified as the percentage of total cells in the outer nuclear layer (ONL) that were TUNEL positive. […] The total number of cells in the ONL was measured in a similar fashion. The total thickness of the retina (measured from the outer edge of the ONL to the inner limiting membrane) was measured in three places in each of three non-overlapping high power fields (40×) at the maximal height of the retinal detachment per section and averaged for each eye. […]

Jurkat cells = Jurkat cells (Zou et al. Nat Med. 2007); cited from earlier work
[3] = test system: photoreceptors (outer nuclear layer); test: ONL cell counts and thickness 2 months after retinal detachment (Met study); assay type: in vivo, Brown Norway rats; conditions: 50 μg subretinal at time of detachment; after 2 months of retinal detachment
Protocol: as §1, §4, §5

Row | Sequence | effect on Fas-Ab induced caspase 8 activation [1] | caspase 8 activity in detached retinas compared to attached retinas (caspase 8) | effect on caspase 3 activity level in detached retinas (caspase 3; 24 hours after detachment) | effect on caspase 9 activity level in detached retinas (caspase 9; 24 hours after detachment) | reduction of caspase 8 activity in detached retinas (caspase 8) | fewer TUNEL-positive photoreceptors as compared with mMet-injected separated retinas [2] [%] | protection from FasL induced apoptosis (Jurkat cells) | reduction of caspase 3 activity in detached retinas (caspase 3; after 24 hours) | reduction of caspase 9 activity in detached retinas (caspase 9; after 24 hours) | increase in ONL cell counts compared with mMet-injected retinas [3] [%] | increase in ONL thickness measurements compared with mMet-injected retinas [3] [%]
1 | HHGSDHERNYIY [mMet, reference compound] | no effect | significantly increased | did not affect | did not affect |  |  |  |  |  |  | 
2 | HHIYLGAVNYIY [Met12] | inhibited by Met12 treatment in a dose dependent manner; also recorded: full inhibition |  |  |  | approximately 50% | ~77 | protects | approximately 50% | approximately 50% | 37 | 27
